Assay results from patent publication US20180325840A1, “COMPOSITIONS AND METHODS FOR PREVENTING OR TREATING FATTY PANCREAS OR AMELIORATING PANCREAS DISEASES CAUSED BY FATTY PANCREAS, DIABETES MELLITUS OR OTHER RELATED DISORDERS” (NATIONAL DEFENSE EDUCATION AND RESEARCH FOUNDATION, priority 2015, published 2018).

Assays:
Format in all cases: in vivo
B6 mice [1] = test: Intraperitoneal glucose tolerance test (IPGTT) in high-fat diet mice; conditions: for AUC of IPGTT: 2 g/kg glucose IP, blood glucose vs. time, 4 weeks of administration; for effect on sugar tolerance (IPGTT, in words): single test compound
Protocol: The experimental animals employed were B6 mice. The number of test animals in each group of the pre-test was four or more, and the number of test animals in each group of the confirmation test was twelve or more. […] After the animals were purchased from Lesco Biotech Co., Ltd. (Taipei) and housed at the National Defense Animal Center, the animal experiments were conducted following the Experimental Guide of National Health Research Institute. First, the animals were fed with 3-5 grams of general diet daily, and the water was supplied infinitely. After 1 to 2 weeks of breeding, the healthy state was observed. The body weight was recorded once a week.
The test animals were randomly grouped into blank control (Blank), high-fat control (HFD), positive control (PS), and test group.
(§1) The blank control was fed with a normal diet arbitrarily for 12 weeks. The high-fat control, the positive control, and the test group were fed with a high-fat diet arbitrarily for 12 weeks. After 8 weeks of feeding, the blank control and the high-fat control were tube fed with deionized water once a day. The positive control was tube fed with silymarin once a day. The test group was tube fed with test compound(s) once a day for 4 weeks.
1.4.3 Analysis of Biochemical Functions of the Pancreas: Intraperitoneal Glucose Tolerance Test (IPGTT)
The mice were moved into a clean cage and fasted overnight. There was no food or feces at the feeding funnel or the bottom of the clean cage to ensure that the animals may get drinking water at all times. The body weight of the mice was measured, and the volume of the glucose solution required for intraperitoneone (IP) injection was calculated (based on a concentration of 250 mg/mL and 2 g of glucose per kg of mouse weight, the volume (μl) required would be 8× body weight (g)). The mice were moved out and injected intraperitoneally with an appropriate amount of glucose solution, and the injection time was recorded. Blood samples were taken from the tail of the mice at 0, 15, 30, 60, 120 and 150 minutes after the glucose solution was injected. The concentration of blood glucose was measured, and the blood glucose analysis was performed using the Roche's ACCU-CHEK Active blood glucose meter.
(§2) All data were expressed as mean±standard deviation (SD), and the test results were calculated using the ANOVA test method to determine whether there was a statistically significant difference by using the Statistical Package of the Social Science program (Version 13, SPSS Inc.) software package. Subsequently, post hoc test least significant difference method was used to perform multiple comparisons to confirm the significant differences between the groups. The significant difference between the averages of the groups was p<0.05.

B6 mice [2] = test: Triglyceride (TG) and total cholesterol (TC) in pancreatic tissue of high-fat diet mice; conditions: 4 weeks of administration
Protocol: (§3) The experimental animals employed were B6 mice. The number of test animals in each group of the pre-test was four or more, and the number of test animals in each group of the confirmation test was twelve or more. Male mice having a weight of 18 to 23 g were bred in an animal room with a normal light and dark cycle (7:00 am to 7:00 pm being the bright period, and the rest being the dark period) at a temperature of 23±2° C. and a relative humidity of 55±15%. After the animals were purchased from Lesco Biotech Co., Ltd. (Taipei) and housed at the National Defense Animal Center, the animal experiments were conducted following the Experimental Guide of National Health Research Institute. First, the animals were fed with 3-5 grams of general diet daily, and the water was supplied infinitely. After 1 to 2 weeks of breeding, the healthy state was observed. The body weight was recorded once a week.
(§4) The test animals were randomly grouped into blank control (Blank), high-fat control (HFD), positive control (PS), and test group. The blank control was given a normal diet; the high-fat control was given a high-fat diet; the positive control was given a high-fat diet and tube fed with silymarin (5 mg/kg/day) (Iranian Journal of Pharmaceutical Research (2016), 15 (3): 493-500; Life Sciences 75 (2004) 2167-2180; and Pharm Biol. 2016 Jul. 8:1-6); and the test group was given a high-fat diet and tube fed with the test ingredient individually.
as §1
1.4.6 Analysis of Triglyceride (TG) and Total Cholesterol (TCHO, TC) in Pancreatic Tissue
After the mice were sacrificed, the pancreas was taken out and weighed to compare the ratios of pancreas weight to body weight. The remaining pancreas was frozen and preserved, and the contents of triglyceride and the total cholesterol in the pancreas were measured.
as §2

B6 mice [3] = test: Blood glucose analysis (GLU) in high-fat diet mice; conditions: for GLU: fasted overnight, 4 weeks of administration; for effect on GLU (in words): single test compound
Protocol: as §3, §4, §1
1.4.2 Analysis of Biochemical Functions of the Pancreas: Blood Glucose Analysis (GLU)
Blood glucose analysis was performed with Roche's ACCU-CHEK Active blood glucose meter. One day before blood collection, mice were fasted overnight. The code card of the blood glucose test paper was inserted into the blood glucose meter, and then the blood glucose test paper was inserted. After the blood drop pattern appeared on the meter, a drop of blood was taken from in vein at the cheek of the mouse with a buccal needle and then dropped into the blood glucose test paper. The blood glucose data shown on the blood glucose meter were recorded.
as §2

B6 mice [4] = test: Homeostasis model assessment of insulin resistance (HOMA-IR) in high-fat diet mice; conditions: for HOMA-IR: 4 weeks of administration; for effect on insulin resistance (in words): single test compound
Protocol: as §3, §4, §1
1.4.5 Analysis of Biochemical Functions of the Pancreas: Homeostasis Model Assessment of Insulin Resistance (HOMA-IR)
The mice were fasted to collect the blood at the end of the test (at the twelfth week), and the concentrations of blood glucose and insulin were measured and calculated according to the following formula: […]
as §2

B6 mice [5] = test: Fasting insulin concentration (ELISA) in high-fat diet mice; conditions: for fasting insulin concentration: 4 weeks of administration; for effect on fasting insulin concentration (in words): single test compound
Protocol: as §3, §4, §1
1.4.4 Analysis of Biochemical Functions of the Pancreas: Analysis of Fasting Insulin Concentration
At the end of the test (at the twelfth week), the mice were fasted to collect the blood following the operation instructions of the mouse ultrasensitive insulin ELISA kit (ALPCO).
as §2

B6 mice [6] = test: Serum (plasma) triglyceride (TG) in high-fat diet mice; conditions: for TG (plasma triglyceride): 4 weeks of administration
Protocol: as §3, §4, §1
Before the start of the test and at the 8th and 12th week after the start of the test, blood was collected from the cheek or heart. All the animals were weighed and then sacrificed at the end of the test, and blood was collected from the cheek or heart again. The blood samples of mice were allowed to stand at room temperature for 1 hour to coagulate, and then centrifuged at 15,700×g by a frozen centrifuge at 4° C. for 5 minutes to separate the serum.
1.4.1 Analysis of Serum Triglyceride (TG) and Total Cholesterol (TCHO, TC)
Triglyceride (TG) and total cholesterol (TCHO, TC) in the serum were measured by the automatic blood biochemical analyzer.
as §2

Row | Compound | AUC of IPGTT (B6 mice [1]; 2.5 mg/kg) [g·h/dL] | effect on sugar tolerance (IPGTT, in words) (B6 mice [1]) | pancreatic TC (B6 mice [2]; 2.5 mg/kg tube fed once a day) [mg/g pancreatic tissue] | pancreatic TG (B6 mice [2]; 2.5 mg/kg tube fed once a day) [mg/g pancreatic tissue] | GLU (B6 mice [3]; 2.5 mg/kg) [mg/dL] | HOMA-IR (B6 mice [4]; 2.5 mg/kg) | effect on insulin resistance (in words) (B6 mice [4]) | fasting insulin concentration (B6 mice [5]; 2.5 mg/kg) [ng/mL] | effect on fasting insulin concentration (in words) (B6 mice [5]) | TG (plasma triglyceride) (B6 mice [6]; 2.5 mg/kg) [mg/dL] | AUC of IPGTT (B6 mice [1]; 1.5 mg/kg) [g·h/dL] | pancreatic TC (B6 mice [2]; 1.5 mg/kg tube fed once a day) [mg/g pancreatic tissue] | pancreatic TG (B6 mice [2]; 1.5 mg/kg tube fed once a day) [mg/g pancreatic tissue] | GLU (B6 mice [3]; 1.5 mg/kg) [mg/dL] | effect on GLU (in words) (B6 mice [3]) | HOMA-IR (B6 mice [4]; 1.5 mg/kg) | fasting insulin concentration (B6 mice [5]; 1.5 mg/kg) [ng/mL] | TG (plasma triglyceride) (B6 mice [6]; 1.5 mg/kg) [mg/dL] | also measured
1 | O=C1C[C@@H](c2ccc(O)c(O)c2)Oc2cc(O)cc(O)c21 [eriodictyol] | 41.9 ± 5.9 | significantly reduce | 3.5 ± 0.6 | 4.5 ± 2.8 | 219.0 ± 35.6 | 0.6 ± 0.2 | significantly reduce | 1.1 ± 0.4 | significantly reduce | 135.4 ± 43.4 |  |  |  |  |  |  |  |  | TG (plasma triglyceride) (B6 mice [6]; 5.0 mg/kg): 143.2 ± 15.1 mg/dL; effect on triglyceride in plasma (in words) (B6 mice [6]; as compared with the high-fat control): significantly reduce
2 | COc1ccc([C@@H]2CC(=O)c3c(O)cc(O)cc3O2)cc1O [hesperitin] |  |  | 4.4 ± 0.7 | 5.7 ± 1.6 |  |  |  |  |  | 190.1 ± 25.9 |  |  |  |  |  |  |  |  | 
3 | OC[C@@H](O)[C@@H](O)[C@H](O)[C@H](O)CO [mannitol] |  | significantly reduce |  |  |  |  | significantly reduce |  | significantly reduce |  | 42.7 ± 1.7 | 3.7 ± 1.0 | 12.6 ± 7.5 | 112.2 ± 32.0 | significantly reduce | 0.3 ± 0.1 | 1.1 ± 0.4 | 158.9 ± 48.9 | pancreatic TC (B6 mice [2]; 4.5 mg/kg tube fed once a day): 3.3 ± 0.7 mg/g pancreatic tissue; pancreatic TG (B6 mice [2]; 4.5 mg/kg tube fed once a day): 9.6 ± 5.1 mg/g pancreatic tissue; pancreatic TC (B6 mice [2]; 7.5 mg/kg tube fed once a day): 3.1 ± 0.3 mg/g pancreatic tissue; pancreatic TG (B6 mice [2]; 7.5 mg/kg tube fed once a day): 4.7 ± 4.0 mg/g pancreatic tissue; TG (plasma triglyceride) (B6 mice [6]; 4.5 mg/kg): 180.1 ± 46.7 mg/dL; TG (plasma triglyceride) (B6 mice [6]; 7.5 mg/kg): 163.9 ± 31.9 mg/dL
4 | CC1CCC(C(C)C)C(O)C1 (stereo not shown) [menthol] |  | significantly reduce |  |  |  |  | significantly reduce |  | significantly reduce |  | 45.6 ± 4.8 | 4.4 ± 0.9 | 18.1 ± 18.3 | 125.7 ± 33.5 | significantly reduce | 0.4 ± 0.4 | 1.2 ± 0.8 | 173.7 ± 56.7 | 
5 | O=C(CCc1ccc(O)cc1)c1c(O)cc(O)cc1O[C@@H]1O[C@H](CO)[C@@H](O)[C@H](O)[C@H]1O [phloridzin] | 51.3 ± 8.9 |  | 3.3 ± 1.1 | 23.3 ± 24.0 | 216.2 ± 26.4 | 0.6 ± 0.2 |  | 1.1 ± 0.3 |  | 148.3 ± 31.4 |  |  |  |  |  |  |  |  | 
6 | O=c1c(-c2ccc(O)cc2)coc2c([C@@H]3O[C@H](CO)[C@@H](O)[C@H](O)[C@H]3O)c(O)ccc12 [puerarin] | 45.1 ± 11.2 | significantly reduce | 4.0 ± 1.2 | 17.3 ± 13.4 | 172.3 ± 22.2 | 0.4 ± 0.2 | significantly reduce | 0.9 ± 0.3 | significantly reduce | 166.7 ± 22.0 |  |  |  |  |  |  |  |  | 
7 | O=C1NS(=O)(=O)c2ccccc21 [saccharin] |  | significantly reduce |  |  |  |  | significantly reduce |  | significantly reduce |  | 41.9 ± 6.2 | 3.0 ± 0.8 | 4.7 ± 2.9 | 92.0 ± 9.6 | significantly reduce | 0.3 ± 0.3 | 1.3 ± 1.1 | 142.6 ± 34.6 | 
8 | OC[C@H]1O[C@H](O[C@]2(CCl)O[C@H](CCl)[C@@H](O)[C@@H]2O)[C@H](O)[C@@H](O)[C@H]1Cl [sucralose] |  | significantly reduce |  |  |  |  | significantly reduce |  | significantly reduce |  | 44.2 ± 3.7 | 4.2 ± 0.5 | 8.1 ± 5.6 | 128.7 ± 19.3 | significantly reduce | 0.4 ± 0.2 | 1.3 ± 0.5 | 126.9 ± 43.3 | pancreatic TC (B6 mice [2]; 7.5 mg/kg tube fed once a day): 3.1 ± 0.4 mg/g pancreatic tissue; pancreatic TG (B6 mice [2]; 7.5 mg/kg tube fed once a day): 5.2 ± 2.1 mg/g pancreatic tissue; TG (plasma triglyceride) (B6 mice [6]; 7.5 mg/kg): 186.9 ± 17.2 mg/dL
